Results as given in US7265154B2, “Valproic acid and derivatives thereof as histone deacetylase inhibitors” (Georg-Speyter-Haus Chemotherapeutisches Forschungsinstitut, priority 2000, dated 2007).
Where “and” joins values, the source holds several entries; their conditions need not be identical. Equal values may be shown once. Square brackets hold non-standard residues; d marks the D form. Peptide text beside a SMILES is read from it. Aoe = N[C@@H](CCCCCC(=O)[C@@H]1CO1)C(=O)O

How the values were obtained:
[1] = molecular target: T1, PPARδ ligand binding domain (glucocorticoid receptor hybrid) (UniProt P04150+P35396); assay: PPARδ-glucocorticoid receptor hybrid reporter gene assay (alkaline phosphatase) in CHO cells; assay type: cell-based; conditions: 40 h, cPGI 5 μM with VPA 1 or 2 mM or TSA 300 nM
T1 construct: expressed in transfected cells; host or cells: CHO subclone with MMTV-LTR alkaline phosphatase reporter
T1 sequence (P04150+P35396 with tags, fused parts or gaps): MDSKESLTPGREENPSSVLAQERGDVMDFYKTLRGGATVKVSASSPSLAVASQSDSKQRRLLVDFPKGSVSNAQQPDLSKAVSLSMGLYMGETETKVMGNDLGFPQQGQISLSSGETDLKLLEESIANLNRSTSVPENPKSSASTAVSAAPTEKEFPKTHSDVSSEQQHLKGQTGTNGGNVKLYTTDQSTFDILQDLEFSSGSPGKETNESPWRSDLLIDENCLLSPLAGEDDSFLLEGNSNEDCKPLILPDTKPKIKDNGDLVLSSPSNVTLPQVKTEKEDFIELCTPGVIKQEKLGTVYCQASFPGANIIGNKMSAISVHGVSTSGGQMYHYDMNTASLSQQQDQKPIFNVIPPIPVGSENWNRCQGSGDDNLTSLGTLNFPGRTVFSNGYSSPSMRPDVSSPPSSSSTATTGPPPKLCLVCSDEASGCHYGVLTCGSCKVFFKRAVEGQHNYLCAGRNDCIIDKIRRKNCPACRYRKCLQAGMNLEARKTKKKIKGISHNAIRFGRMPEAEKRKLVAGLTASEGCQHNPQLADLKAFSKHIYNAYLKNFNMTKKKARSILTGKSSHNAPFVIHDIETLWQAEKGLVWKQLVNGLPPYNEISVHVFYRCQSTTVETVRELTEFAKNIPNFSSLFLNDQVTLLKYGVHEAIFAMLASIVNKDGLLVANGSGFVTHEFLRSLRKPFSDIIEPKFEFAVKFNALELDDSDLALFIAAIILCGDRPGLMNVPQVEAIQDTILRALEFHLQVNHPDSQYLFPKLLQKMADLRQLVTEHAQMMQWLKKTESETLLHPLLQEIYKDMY
Description: A reporter gene cell line for activation of the PPARδ ligand binding domain was constructed in CHO cells. […] Activation of the PPARδ ligand binding domain in these cells induces expression of the alkaline phosphatase reporter gene which is detectable by an enzymatic assay from the cell culture supernatant. […] Reporter gene activity was monitored by an enzymatic assay (alkaline phosphatase).

[2] = test system: histones H3 and H4 in F9 cells; assay: Accumulation of hyperacetylated histones H3 and H4, Western blot; assay type: cell-based; conditions: whole cell extracts, VPA in the range of therapeutic serum levels, 16 h
Excerpt: Histone deacetylase inhibitors induce the accumulation of N-terminally hyperacetylated histones H3 and H4. These acetylated histones can be detected by Western blot analysis of whole cell extracts or of histone preparations from histone deacetylase inhibitor-treated cells using antibodies specific for the acetylated N-terminal lysine residues of histones H3 and H4.
These acetylated histones can be detected by Western blot analysis in cell extracts of appropriately treated cells.
(A) For the time course analysis F9 cells were seeded into 6-well culture dishes 30 h before the intended time point of analysis. […] DNA of collected samples was sheared by sonication and samples were separated on a 15% denaturing polyacrylamide gel. Acetylated histones H3 and histone H4 were detected by Western blot analysis using commercially available antibodies (Upstate Biotechnology) specific for the acetylated forms of histones (Ac-H3, Cat-Nr.: 06-599; Ac-H4, Cat-Nr.: 06-598). Equal loading of the lanes was confirmed by staining a part of the polyacrylamide gel by Coomassie blue.
Whole cell extracts were prepared 16 h after treatment as described above. Analysis for acetylated histones H3 and H4 was performed as described in (A).

[3] = test system: Gal4 fusion proteins of TR, PPARδ, RAR, N—CoR and AML/ETO in Hela cells; assay: Gal4 fusion protein transcriptional repression assay, UAS TK luciferase reporter; assay type: cell-based; conditions: 24 h, VPA 1 mM, Trapoxin 10 nM, TSA 100 nM
Description: The transcriptional assay for repressor activity exploits activation and derepression of a Gal4-dependent reporter gene. This assay can be performed either by transient transfection of mammalian cell lines (e.g. HeLa, 293T, CV-1) or with specifically constructed permanent cell lines. Transcription factors such as thyroid hormone receptor, PPARδ, retinoic acid receptor, N—COR and AML/ETO repress transcription when they bind to a promoter containing UAS elements as fusion proteins with the heterologous DNA-binding domain of the yeast Gal4 protein. […] HDAC inhibitors induce relief of this repression which can be detected as an increase in reporter gene activity (e.g. by luciferase assay).
The transcription factors thyroid hormone receptor (TR), peroxisome proliferator activated receptor □ (PPARδ), retinoic acid receptor (RAR), the corepressor N—CoR and the AML/ETO fusion protein repress transcription when they bind to a promoter containing UAS sites (Gal4 response element) as fusion proteins with the heterologous DNA binding domain of the yeast Gal4 protein. […] Transcriptional repression is measured as luciferase activity relative to the baseline of cells transfected with an expression plasmid for the Gal4 DNA binding domain alone (FIG. 2).

F9 teratocarcinoma cells [4] = assay: Nuclear AP-2 protein as differentiation marker, Western blot; assay type: cell-based; conditions: 48 h; VPA 1 mM, sodium butyrate 1 mM, trichostatin A 30 nM
Excerpt: Nuclear extracts were separated on a 9% SDS polyacrylamide gel. AP-2 protein was detected by Western blot analysis using a rabbit polyclonal antibody (Santa Cruz, Cat.-No.: SC-184) at a dilution of 1/1000 in Tris buffered saline containing 3% non-fat dry milk and 0.05% Tween 20.

[5] = test system: SW-1116 colon cancer cells; assay: Morphological evaluation for cell death, SW-1116; assay type: cell-based, human; conditions: 1 mM VPA
Description: (§1) The reduction in biomass could indicate cell loss due to cell death and/or differentiation associated cell cycle arrest. Quantitative parameters, e.g. the loss of biomass, was determined in 30 human cancer cell lines (FIG. 8 e) and twelve examples of dose-response curves are shown, e.g. BT-549 breast cancer cells (1), estrogen dependent ZR-75 breast cancer cells (2), DMS-114 small cell lung cancer cells (3), NCl—H226 non-small cell lung cancer cells (4), SK-MEL-28 skin cancer cells (5), OVCAR-3 ovarian cancer cells (6), HUP-T3 pancreatic cancer cells (7), DU-145 prostate cancer cells (8), DETROIT-562 head and neck cancer cells, LS-174 colon cancer cells (10), A-172 brain cancer cells (11) and HL-60 leukemia cells (12) (FIGS. 8a-d). All cells were evaluated for morphological signs of cell death and/or differentiation.

[6] = test system: human cancer cell cultures; assay: Reduction of total cellular biomass (Sulforhodamine B); assay type: cell-based; conditions: 48 hours VPA
Description: Background OD of complete medium with 5% FBS fixed and stained as described above was also determined in 12 separate wells.

PC-3 cells = assay: Morphological evaluation for differentiation, PC-3; assay type: cell-based, human; conditions: VPA treatment
Description: as §1

[7] = test system: DU-145 prostate cancer cells; assay: Morphological evaluation for differentiation, DU-145; assay type: cell-based, human; conditions: VPA treatment
Description: as §1

[8] = test system: MT-450 breast cancer cells; assay: 3H-thymidine incorporation in MT-450 cells; assay type: cell-based; conditions: 1 mM VPA, 72 h, then 1 h 3H-thymidine
Excerpt: (§2) Cell differentiation is associated with cell cycle arrest, morphological alterations and the appearance of expression of markers of the differentiated phenotype. Morphological alterations where determined by microscopic evaluation of F9 and HT-29 cells. One parameter of differentiation, the cell cycle arrest, was shown in F9 teratocacrcinoma, estrogen independent MT-450 breast cancer and HT-29 colonic carcinoma cells by means of the reduced incorporation of ^3H-thymidine into cultured cells. […] 37 kBq of ^3H-thymidine were added for additional 12 h of culture. MT-450 cells were cultured for 72 h prior to a 1 h ^3H-thymidine labelling period. Incorporation of ^3H-thymidine into DNA was determined by automatic cell harvesting and liquid scintillation counting. […] The dose-response for the reduction of thymidine incorporation into HT-29 cells (FIG. 5A) was determined by the same experimental procedure. In addition, the induction of a cell differentiation marker was shown in F9 teratocarcinoma cells (FIG. 5B).

[9] = test system: HT-29 colonic carcinoma cells; assay: 3H-thymidine incorporation in HT-29 cells; assay type: cell-based; conditions: 1 mM VPA, 36 h, then 12 h 3H-thymidine
Excerpt: as §2

[10] = test system: breast, ovarian, squamous cell and renal carcinoma cells; assay: Cell viability assay (MTT); assay type: cell-based; conditions: 1 or 3 mM, 40 h or 70 h
Description: Human MDA-MB468, MDA-MB453 and SKBR3 breast carcinoma cells, A431 squamous cell carcinoma cells, and SKOV3 ovarian carcinoma cells were maintained in Dulbecco's modified Eagle's medium (DMEM, BioWhittaker, Verviers, Belgium) supplemented with 10% heat inactivated fetal bovine serum (FBS), 2 mM L-glutamine, 100 units/ml penicillin, and 100 μg/ml streptomycin. Human MCF7 breast carcinoma cells were grown in RPMI medium supplemented as described above.
Renal cell carcinoma (Renca) cells stably transfected with plasmid pZeoSV2/lacZ encoding E. coli β-galactosidase (Renca-lacZ cells) (Maurer-Gebhard et al., Cancer Res. 58: 2661-2666, 1998) were grown in RPMI-1640 medium supplemented with 8% FBS, 2 mM L-glutamine, 100 U/ml penicillin, 100 μg/ml streptomycin, 0.25 mg/ml Zeocin. […]
Tumor cells were seeded in 96 well plates at a density of 1×10^4 cells/well in normal growth medium. […] After solubilization of the formazan product, the absorption at 590 nm was determined in a microplate reader (Dynatech, Denkendorf, Germany) and the relative amount of viable cells in comparison to cells grown without the addition of valproic acid was calculated.

F9 teratocarcinoma cells [11] = assay: 3H-thymidine incorporation in F9 cells; assay type: cell-based; conditions: 1 mM VPA, 36 h, then 12 h 3H-thymidine
Excerpt: as §2

U87MG cells = assay: Morphological evaluation for differentiation, U87MG; assay type: cell-based, human; conditions: VPA treatment
Description: as §1

CC(/C=C/C(=O)NO)=C\[C@@H](C)C(=O)c1ccc(N(C)C)cc1 [TSA, trichostatin A]
Activation of the reporter gene together with the PPARδ ligand cPGI [1]: synergistic activation | Accumulation of hyperacetylated histones H3 and H4 [2]: induce the accumulation of hyperacetylated histones H3 and H4 | Relief of transcriptional repression (increase in reporter gene activity) [3]: relief of repression | Appearance of nuclear AP-2 protein (F9 teratocarcinoma cells [4]): induce nuclear AP-2 protein

O=C1N[C@@H](Cc2ccccc2)C(=O)N2CCC[C@@H]2C(=O)N[C@@H](CCCCCC(=O)[C@@H]2CO2)C(=O)N[C@H]1Cc1ccccc1 [Trapoxin, trapoxin] (cyclo(FF[dP][Aoe]))
Relief of transcriptional repression (increase in reporter gene activity) [3]: relief of repression

CCCC(CCC)C(=O)O [VPA, 2-n-propylpentanoic acid]
Cell death by morphological signs [5]: most cells were dying | Total cellular biomass [6]: reduces the total cellular biomass | Change of cell morphology (PC-3 cells): change their normal round morphology to a long fibroblast-like shape | Change of cell morphology [7]: change their normal round morphology to a long fibroblast-like shape | Reduction of the rate of thymidine incorporation [8]: 63±8% | Reduction of the rate of thymidine incorporation [9]: 52±8% | Viability of tumor cells (MTT) [10]: reduces the viability | Accumulation of hyperacetylated histones H3 and H4 [2]: induce hyperactylation of histones H3 and H4 | Reduction of the rate of thymidine incorporation (F9 teratocarcinoma cells [11]): 48±5% and 48% | Appearance of nuclear AP-2 protein (F9 teratocarcinoma cells [4]): induce nuclear AP-2 protein | Change of cell morphology (U87MG cells): increase in length and develop spider-like filamentous extensions

CCCC(=O)[O-].[Na+] [sodium butyrate]
Accumulation of hyperacetylated histones H3 and H4 [2]: induce the accumulation of hyperacetylated histones H3 and H4 | Appearance of nuclear AP-2 protein (F9 teratocarcinoma cells [4]): weak
